In general, mortality refers to the percentage killed.

Structures are written as SMILES.

This is an account of results in patent US9523100B2, “Pesticidal compositions and related methods” (DOW AGROSCIENCES LLC, priority 2013, dated 2016).

The test system of experiment [1] is Green Peach Aphid (GPA) (Myzus persicae) (MYZUPE). The experiment can be described thus: Bioassay for Green Peach Aphid (GPA), foliar spray on cabbage seedlings. In kind it is in vivo. The following applies: 72 h, 200 ppm foliar spray on cabbage seedlings, graded after three days, Abbott corrected % control, read-out: GPA 200 ppm, % Control (or Mortality) rating. The method in brief:
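Foliar spray test: 200 ppm solutions (0.025% Tween 20 in water, 20% acetone/methanol) applied to both leaf sides of aphid-infested cabbage seedlings. After 3 days at about 25° C, live aphids per plant were counted; control corrected to solvent check via Abbott's formula.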

In experiment [2] the test system is Sweetpotato Whitefly-Crawler (WF) (Bemisia tabaci) (BEMITA). Put plainly: Insecticidal test for Sweetpotato Whitefly-Crawler (WF) in foliar spray assay on cotton plants. In kind it is in vivo. The following applies: 216 h, 200 ppm foliar spray on cotton plants, graded after 9 days, Abbott corrected % control, read-out: WF 200 ppm, % Control (or Mortality) rating. The method in brief:
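Whitefly nymph control on egg-infested cotton (eggs laid 4–5 days pre-treatment), foliar spray at 200 ppm test compound. Live late-stage nymphs counted microscopically 9 days later at ~25 °C; control calculated by Abbott's formula relative to acetone-diluent-sprayed plants.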

For the compound `CCN(C(=O)C(C)(C)OC(C)=O)c1cn(-c2cccnc2)nc1Cl` [FA73, 1-((3-Chloro-1-(pyridin-3-yl)-1H-pyrazol-4-yl)(ethyl)amino)-2-methyl-1-oxopropan-2-ylacetate], the mortality at 200 ppm lay within 80 to 100% in experiment [1] and 0 to 80% in experiment [2].

As for `CCN(C(=O)CCNC(=O)C1CC1(F)F)c1cn(-c2cccnc2)nc1Cl` (centres unmarked) [Compound F56, N-(3-((3-Chloro-1-(pyridin-3-yl)-1H-pyrazol-4-yl)(ethyl)amino)-3-oxopropyl)-2,2-difluorocyclopropanecarboxamide], the mortality at 200 ppm in experiment [1] and in experiment [2] was 80 to 100% in each case.

In the case of `CCN(C(=O)CC1CCN(CC(F)(F)F)C1=O)c1cn(-c2cccnc2)nc1Cl` (centres unmarked) [FA65, N-(3-Chloro-1-(pyridin-3-yl)-1H-pyrazol-4-yl)-N-ethyl-2-(2-oxo-1-(2,2,2-trifluoroethyl)pyrrolidin-3-yl)acetamide], the mortality at 200 ppm in experiment [1] and in experiment [2] was 80 to 100% in each case.

Turning to `CCN(C(=O)C1CCN(C(=O)CC(F)(F)F)C1)c1cn(-c2cccnc2)nc1Cl` (centres unmarked) [Compound P21, N-(3-Chloro-1-(pyridin-3-yl)-1H-pyrazol-4-yl)-N-ethyl-1-(3,3,3-trifluoropropanoyl)pyrrolidine-3-carboxamide], the mortality at 200 ppm was 80 to 100% in experiment [1] and 0 to 80% in experiment [2].

On to `CN(C)C(=O)CCC(=O)N(C)c1cn(-c2cccnc2)nc1Cl` [Compound F25, N1-(3-Chloro-1-(pyridin-3-yl)-1H-pyrazol-4-yl)-N1,N4,N4-trimethyl succinimide], for which the results for the mortality at 200 ppm in experiment [1] and in experiment [2] were 0 to 80% and 80 to 100%, respectively.

`O=C(CCC(=O)N(CC1CC1)c1cn(-c2cccnc2)nc1Cl)N1CCCCC1` [Compound F82, N-(3-Chloro-1-(pyridin-3-yl)-1H-pyrazol-4-yl)-N-(cyclopropylmethyl)-4-oxo-4-(piperidin-1-yl)butanamide]: the figures for the mortality at 200 ppm in experiment [1] and in experiment [2] were 0 to 80% and 80 to 100%, respectively.

Turning to `CN(C(=O)CCN1CCSC1=O)c1cn(-c2cccnc2)nc1Cl` [Compound F38, N-(3-Chloro-1-(pyridin-3-yl)-1H-pyrazol-4-yl)-N-methyl-3-(2-oxothiazolidin-3-yl)propanamide], the mortality at 200 ppm in experiment [1] and in experiment [2] was 80 to 100% each time.

Consider `CCN(C(=O)C(C)OC(=O)CC(F)(F)F)c1cn(-c2cccnc2)nc1Cl` (centres unmarked) [FA74, 1-((3-Chloro-1-(pyridin-3-yl)-1H-pyrazol-4-yl)(ethyl)amino)-1-oxopropan-2-yl 3,3,3-trifluoropropanoate], for which the results for the mortality at 200 ppm in experiment [1] and in experiment [2] were 80 to 100% and 0 to 80%, respectively.

For the compound `CCN(C(=O)CC/C(=N\OCCCC(F)(F)F)c1cccs1)c1cn(-c2cccnc2)nc1Cl` [FA26, (E)-N-(3-Chloro-1-(pyridin-3-yl)-1H-pyrazol-4-yl)-N-ethyl-4-(thiophen-2-yl)-4-((4,4,4-trifluorobutoxy)imino)butanamide], the mortality at 200 ppm in experiment [1] was in the range of 0 to 80%; in experiment [2], 80 to 100%.

`CCN(C(=O)CCC(=O)NCc1ccc(F)cc1)c1cn(-c2cccnc2)nc1Cl` [Compound F80, N1-(3-Chloro-1-(pyridin-3-yl)-1H-pyrazol-4-yl)-N1-ethyl-N4-(4-fluorobenzyl)succinamide]: the mortality at 200 ppm in experiment [1] lay in the range of 0 to 80%; in experiment [2], 80 to 100%.

Consider `CCN(C(=O)C1CCN(C(=O)C(F)(F)F)C1)c1cn(-c2cccnc2)nc1Cl` (centres unmarked) [FA9, N-(3-Chloro-1-(pyridin-3-yl)-1H-pyrazol-4-yl)-N-ethyl-1-(2,2,2-trifluoroacetyl)pyrrolidine-3-carboxamide], for which the mortality at 200 ppm in experiment [1] is 80 to 100%; in experiment [2], less than 0%.

For `CN(C(=O)[C@@H]1C=C[C@H](NC(=O)OC(C)(C)C)C1)c1cn(-c2cccnc2)nc1Cl` [Compound F109, tert-butyl ((1R,4S)-4-((3-chloro-1-(pyridin-3-yl)-1H-pyrazol-4-yl)(methyl)carbamoyl)cyclopent-2-en-1-yl)carbamate], the mortality at 200 ppm in experiment [1] lay within 0 to 80%; in experiment [2], 80 to 100%.

Take `CCN(C(=O)CCC1CN(Cc2ccc(C(F)(F)F)nc2)C1=O)c1cn(-c2cccnc2)nc1Cl` (centres unmarked) [Compound F91, N-(3-Chloro-1-(pyridin-3-yl)-1H-pyrazol-4-yl)-N-ethyl-3-(2-oxo-1-((6-(trifluoromethyl)pyridin-3-yl)methyl)azetidin-3-yl)propanamide]: the mortality at 200 ppm in experiment [1] and in experiment [2] was 80 to 100% throughout.

As to `CN(C(=O)CCN1CCCC1=O)c1cn(-c2cccnc2)nc1Cl` [Compound F107, N-(3-Chloro-1-(pyridin-3-yl)-1H-pyrazol-4-yl)-N-methyl-3-(2-oxopyrrolidin-1-yl)propanamide], the mortality at 200 ppm in experiment [1] and in experiment [2] was 80 to 100% in each case.

Regarding `CCN(C(=O)CCNC(=O)C(C)CC(F)(F)F)c1cn(-c2cccnc2)nc1Cl` (centres unmarked) [Compound F44, N-(3-((3-Chloro-1-(pyridin-3-yl)-1H-pyrazol-4-yl)(ethyl)amino)-3-oxopropyl)-4,4,4-trifluoro-2-methylbutanamide], the mortality at 200 ppm in experiment [1] and in experiment [2] was 80 to 100% each time.

Turning to `CCN(C(=O)CCN1CCCC1=O)c1cn(-c2cccnc2)nc1Cl` [Compound F39, N-(3-Chloro-1-(pyridin-3-yl)-1H-pyrazol-4-yl)-N-ethyl-3-(2-oxopyrrolidin-1-yl)propanamide], the mortality at 200 ppm in experiment [1] and in experiment [2] was 80 to 100% in each case.

On to `CCN1CC(CC(=O)N(CC)c2cn(-c3cccnc3)nc2Cl)C1=O` (centres unmarked) [Compound F84, N-(3-Chloro-1-(pyridin-3-yl)-1H-pyrazol-4-yl)-N-ethyl-2-(1-ethyl-2-oxoazetidin-3-yl)acetamide], for which the mortality at 200 ppm in experiment [1] and in experiment [2] was 80 to 100% throughout.

For `CCN(C(=O)CCNC)c1cn(-c2cccnc2)nc1Cl` [Compound C11, N-(3-chloro-1-(pyridin-3-yl)-1H-pyrazol-4-yl)-N-ethyl-3-(methylamino)propanamide], the mortality at 200 ppm in experiment [1] lay in the range of 0 to 80%; in experiment [2] it was 80 to 100%.

Regarding `CCN(C(=O)CCC(=O)N(C)CCC(F)(F)F)c1cn(-c2cccnc2)nc1Cl` [Compound F108, N1-(3-chloro-1-(pyridin-3-yl)-1H-pyrazol-4-yl)-N1-ethyl-N4-methyl-N4-(3,3,3-trifluoropropyl)succinamide], the mortality at 200 ppm in experiment [1] and in experiment [2] was 80 to 100% each time.

With `CCN(C(=O)CCC1CCN(C(=O)OC(C)(C)C)C1=O)c1cn(-c2cccnc2)nc1Cl` (centres unmarked) [Compound F128, tert-butyl 3-(3-((3-chloro-1-(pyridin-3-yl)-1H-pyrazol-4-yl)(ethyl)amino)-3-oxopropyl)-2-oxopyrrolidine-1-carboxylate], the mortality at 200 ppm in experiment [1] and in experiment [2] was 80 to 100% throughout.

As for `CCN(C(=O)CC/C(C)=N/O)c1cn(-c2cccnc2)nc1Cl` [Compound F105, (E)-N-(3-chloro-1-(pyridin-3-yl)-1H-pyrazol-4-yl)-N-ethyl-4-(hydroxyimino) pentanamide], the mortality at 200 ppm in experiment [1] lay within 0 to 80%; in experiment [2], 80 to 100%.

Turning to `CCN(C(=O)CC1CNC1=O)c1cn(-c2cccnc2)nc1Cl` (centres unmarked) [Compound F71, N-(3-chloro-1-(pyridin-3-yl)-1H-pyrazol-4-yl)-N-ethyl-2-(2-oxoazetidin-3-yl)acetamide], the mortality at 200 ppm in experiment [1] and in experiment [2] was 80 to 100% each time.

Take `CCN(C(=O)C1CCC(=O)C1)c1cn(-c2cncc(F)c2)nc1C` (centres unmarked) [FA71, N-Ethyl-N-(1-(5-fluoropyridin-3-yl)-3-methyl-1H-pyrazol-4-yl)-3-oxocyclopentanecarboxamide]: the mortality at 200 ppm in experiment [1] and in experiment [2] was 0 to 80% throughout.

For the compound `CCN(C(=O)CC/C(=N\OCc1ccc(C(F)(F)F)nc1)c1cccs1)c1cn(-c2cccnc2)nc1Cl` [FA36, (E)-N-(3-Chloro-1-(pyridin-3-yl)-1H-pyrazol-4-yl)-N-ethyl-4-(thiophen-2-yl)-4-(((6-(trifluoromethyl)pyridin-3-yl)methoxy)imino)butanamide], the mortality at 200 ppm in experiment [1] and in experiment [2] was 0 to 80% throughout.

For the compound `CCN(C(=O)CCC(=O)N(C)Cc1ccco1)c1cn(-c2cccnc2)nc1Cl` [FA77, N1-(3-Chloro-1-(pyridin-3-yl)-1H-pyrazol-4-yl)-N1-ethyl-N4-(furan-2-ylmethyl)-N4-methylsuccinamide], the mortality at 200 ppm in experiment [1] is 0 to 80%; in experiment [2], 80 to 100%.

On to `CCN(C(=O)CCN(C)C(C)=O)c1cn(-c2cccnc2)nc1Cl` [Compound F64, N-(3-chloro-1-(pyridin-3-yl)-1H-pyrazol-4-yl)-N-ethyl-3-(N-methylacetamido) propanamide], for which the mortality at 200 ppm in experiment [1] and in experiment [2] was 80 to 100% each time.

Turning to `CCN(C(=O)C1CCCN(C(=O)C(C)C)C1)c1cn(-c2cccnc2)nc1Cl` (centres unmarked) [FA3, N-(3-Chloro-1-(pyridin-3-yl)-1H-pyrazol-4-yl)-N-ethyl-1-isobutylylpiperidine-3-carboxamide], the mortality at 200 ppm in experiment [1] and in experiment [2] was 80 to 100% in each case.

Consider `CCN(C(=O)CC1CCN(CCC2CC2(F)F)C1=O)c1cn(-c2cccnc2)nc1Cl` (centres unmarked) [FA64, N-(3-Chloro-1-(pyridin-3-yl)-1H-pyrazol-4-yl)-2-(1-(2-(2,2-difluorocyclopropyl)ethyl)-2-oxopyrrolidin-3-yl)-N-ethylacetamide], for which the mortality at 200 ppm in experiment [1] and in experiment [2] was 80 to 100% in each case.
